Measured values from US20180022786A1, “NOVEL SODIUM CHANNEL BLOCKING PEPTIDES AND THE USE THEREOF” (priority 2012, published 2018).
Read-outs that look alike come from different tables or passages of the source.

Experiments:
Nav1.7 [1] = biological target: T1, Nav1.7 (Homo sapiens, UniProt Q15858); assay: cell-based
Target sequence in this assay (Q15858 other isoform, or with tags, fused parts or gaps): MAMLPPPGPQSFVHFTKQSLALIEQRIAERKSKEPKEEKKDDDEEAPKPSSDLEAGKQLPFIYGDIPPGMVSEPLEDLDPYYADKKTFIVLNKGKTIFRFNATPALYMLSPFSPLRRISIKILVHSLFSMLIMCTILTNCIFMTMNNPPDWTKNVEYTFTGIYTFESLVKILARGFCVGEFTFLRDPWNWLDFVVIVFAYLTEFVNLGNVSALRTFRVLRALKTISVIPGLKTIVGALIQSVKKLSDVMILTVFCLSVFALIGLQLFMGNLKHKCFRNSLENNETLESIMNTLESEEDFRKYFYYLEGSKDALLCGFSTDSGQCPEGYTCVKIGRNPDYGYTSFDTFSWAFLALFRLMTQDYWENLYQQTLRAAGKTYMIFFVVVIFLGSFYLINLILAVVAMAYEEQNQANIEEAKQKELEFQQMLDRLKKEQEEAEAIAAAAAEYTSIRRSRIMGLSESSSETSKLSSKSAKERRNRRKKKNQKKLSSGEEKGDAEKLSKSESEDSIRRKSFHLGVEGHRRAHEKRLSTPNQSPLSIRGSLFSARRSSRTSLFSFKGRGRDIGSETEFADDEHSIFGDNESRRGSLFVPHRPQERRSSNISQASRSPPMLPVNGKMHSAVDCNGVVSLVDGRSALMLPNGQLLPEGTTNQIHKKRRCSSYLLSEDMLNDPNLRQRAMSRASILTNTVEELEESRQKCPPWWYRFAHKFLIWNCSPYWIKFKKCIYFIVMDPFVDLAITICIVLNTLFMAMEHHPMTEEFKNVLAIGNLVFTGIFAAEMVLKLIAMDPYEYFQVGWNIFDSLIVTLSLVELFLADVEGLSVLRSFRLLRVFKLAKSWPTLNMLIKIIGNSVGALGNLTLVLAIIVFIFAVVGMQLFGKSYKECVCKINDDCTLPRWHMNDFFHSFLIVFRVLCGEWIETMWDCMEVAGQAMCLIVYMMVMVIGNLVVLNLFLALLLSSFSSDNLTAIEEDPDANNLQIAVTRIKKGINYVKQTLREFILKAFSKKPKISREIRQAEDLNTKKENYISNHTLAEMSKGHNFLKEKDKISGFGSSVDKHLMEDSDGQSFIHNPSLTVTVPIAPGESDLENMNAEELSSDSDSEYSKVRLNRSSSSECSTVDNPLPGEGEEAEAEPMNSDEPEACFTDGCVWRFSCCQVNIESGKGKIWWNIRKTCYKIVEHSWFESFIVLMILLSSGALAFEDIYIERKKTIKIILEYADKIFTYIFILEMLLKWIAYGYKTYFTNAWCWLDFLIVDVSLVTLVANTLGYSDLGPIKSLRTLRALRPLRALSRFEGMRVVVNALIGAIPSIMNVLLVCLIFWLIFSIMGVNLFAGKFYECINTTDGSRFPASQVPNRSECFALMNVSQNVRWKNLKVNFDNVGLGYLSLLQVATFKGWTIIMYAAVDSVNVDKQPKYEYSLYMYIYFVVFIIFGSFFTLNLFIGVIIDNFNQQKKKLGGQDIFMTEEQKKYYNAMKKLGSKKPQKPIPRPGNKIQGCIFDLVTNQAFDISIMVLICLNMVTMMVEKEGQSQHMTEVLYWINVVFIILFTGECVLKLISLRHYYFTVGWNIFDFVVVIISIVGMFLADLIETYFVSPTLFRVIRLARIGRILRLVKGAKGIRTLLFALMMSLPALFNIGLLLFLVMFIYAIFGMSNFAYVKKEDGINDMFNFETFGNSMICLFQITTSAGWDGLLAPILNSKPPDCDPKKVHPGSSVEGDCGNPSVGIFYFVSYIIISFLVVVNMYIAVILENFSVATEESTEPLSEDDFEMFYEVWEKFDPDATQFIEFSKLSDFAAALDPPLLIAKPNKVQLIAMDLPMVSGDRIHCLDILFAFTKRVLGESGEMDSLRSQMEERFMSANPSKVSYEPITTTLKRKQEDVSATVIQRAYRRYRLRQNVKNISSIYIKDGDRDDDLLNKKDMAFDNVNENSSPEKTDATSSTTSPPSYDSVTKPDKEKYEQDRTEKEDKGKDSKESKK

Nav1.2 [2] = biological target: T2, Nav1.2 (Rattus norvegicus, UniProt P04775); assay: cell-based; details: EP (electrophysiology)
Nav1.3 = Nav1.3 (Homo sapiens, UniProt Q9NY46); details: read-out: TTX IC50; cited from earlier work
Nav1.6 = Nav1.6 (Homo sapiens, UniProt Q9UQD0); details: read-out: TTX IC50; cited from earlier work
Nav1.8 = Nav1.8 (Homo sapiens, UniProt Q9Y5Y9); details: read-out: TTX IC50; cited from earlier work
Nav1.9 = Nav1.9 (Homo sapiens, UniProt Q9UI33); details: read-out: TTX IC50; cited from earlier work
Nav1.1 = Nav1.1 (Homo sapiens, UniProt P35498); details: read-out: TTX IC50; cited from earlier work
Nav1.2 [3] = biological target: Nav1.2 (Homo sapiens, UniProt Q99250); details: read-out: TTX IC50; cited from earlier work
Nav1.7 [4] = biological target: T1, Nav1.7; details: Table 2, natural toxins, from WO 2012/004664 A2; cited from earlier work
Nav1.2 [5] = biological target: T2, Nav1.2; details: cited from earlier work
[6] = FLIPR, read-out: Nav1.7 IC50 FLIPR
[7] = Table 2, natural toxins, from WO 2012/004664 A2

T2 sequence (P04775 whole entry): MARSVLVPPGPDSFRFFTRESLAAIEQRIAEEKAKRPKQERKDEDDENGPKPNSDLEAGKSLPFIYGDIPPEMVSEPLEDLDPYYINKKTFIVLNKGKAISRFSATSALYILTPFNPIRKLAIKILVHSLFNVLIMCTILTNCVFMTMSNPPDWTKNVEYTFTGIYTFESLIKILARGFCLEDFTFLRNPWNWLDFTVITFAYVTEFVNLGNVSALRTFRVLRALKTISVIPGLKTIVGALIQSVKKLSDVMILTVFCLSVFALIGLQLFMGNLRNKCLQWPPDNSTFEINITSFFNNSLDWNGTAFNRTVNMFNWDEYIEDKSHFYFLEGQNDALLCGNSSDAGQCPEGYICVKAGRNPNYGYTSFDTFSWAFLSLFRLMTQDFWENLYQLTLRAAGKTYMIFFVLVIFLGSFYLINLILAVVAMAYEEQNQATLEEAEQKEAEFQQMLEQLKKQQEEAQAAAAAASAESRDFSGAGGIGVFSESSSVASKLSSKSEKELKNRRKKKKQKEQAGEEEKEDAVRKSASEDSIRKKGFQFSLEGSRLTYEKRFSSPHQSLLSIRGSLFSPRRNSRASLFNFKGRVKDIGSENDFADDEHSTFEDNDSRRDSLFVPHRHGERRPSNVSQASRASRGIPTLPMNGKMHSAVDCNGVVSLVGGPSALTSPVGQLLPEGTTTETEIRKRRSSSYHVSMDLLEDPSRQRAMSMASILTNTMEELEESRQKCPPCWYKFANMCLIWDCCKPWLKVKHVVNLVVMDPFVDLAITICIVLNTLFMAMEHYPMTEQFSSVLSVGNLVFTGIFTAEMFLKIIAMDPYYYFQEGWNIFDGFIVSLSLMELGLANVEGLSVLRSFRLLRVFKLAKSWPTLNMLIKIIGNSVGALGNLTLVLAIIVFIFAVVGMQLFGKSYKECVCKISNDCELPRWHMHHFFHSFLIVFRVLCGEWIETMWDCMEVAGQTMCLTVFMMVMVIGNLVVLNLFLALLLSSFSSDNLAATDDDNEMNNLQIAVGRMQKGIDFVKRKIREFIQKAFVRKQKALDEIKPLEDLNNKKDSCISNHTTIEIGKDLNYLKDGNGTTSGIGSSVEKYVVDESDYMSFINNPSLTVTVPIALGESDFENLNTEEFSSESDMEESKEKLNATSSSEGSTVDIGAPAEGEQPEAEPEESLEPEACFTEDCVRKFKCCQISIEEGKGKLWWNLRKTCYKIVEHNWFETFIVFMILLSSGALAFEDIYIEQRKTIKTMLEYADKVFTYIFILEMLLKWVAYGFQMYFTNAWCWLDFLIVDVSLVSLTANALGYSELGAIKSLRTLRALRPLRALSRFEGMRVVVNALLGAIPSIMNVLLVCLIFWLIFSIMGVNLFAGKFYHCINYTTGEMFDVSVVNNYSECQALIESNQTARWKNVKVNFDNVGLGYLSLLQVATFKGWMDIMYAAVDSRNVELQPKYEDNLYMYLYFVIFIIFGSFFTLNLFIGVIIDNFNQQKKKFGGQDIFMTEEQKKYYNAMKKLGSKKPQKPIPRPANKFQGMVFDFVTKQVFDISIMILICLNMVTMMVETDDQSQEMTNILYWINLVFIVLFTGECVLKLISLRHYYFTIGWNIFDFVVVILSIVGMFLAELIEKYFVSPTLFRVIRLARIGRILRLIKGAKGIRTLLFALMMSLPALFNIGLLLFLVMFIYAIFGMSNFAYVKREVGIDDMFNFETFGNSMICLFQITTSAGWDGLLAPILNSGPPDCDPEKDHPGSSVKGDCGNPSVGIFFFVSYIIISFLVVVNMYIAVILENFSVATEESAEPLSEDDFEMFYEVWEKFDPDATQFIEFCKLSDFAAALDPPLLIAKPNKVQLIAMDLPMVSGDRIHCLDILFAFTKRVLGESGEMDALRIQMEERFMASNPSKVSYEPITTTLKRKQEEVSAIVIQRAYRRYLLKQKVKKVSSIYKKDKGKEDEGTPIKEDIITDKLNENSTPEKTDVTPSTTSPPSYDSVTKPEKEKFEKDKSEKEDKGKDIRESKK

| Compound | IC50 (Nav1.7 [1]; [6]) [nM] | IC50 (Nav1.7 [4]) [nM] | IC50 (Nav1.2 [5]; [7]) [nM] | further results |
| --- | --- | --- | --- | --- |
| CSCC[C@@H]1NC(=O)CNC(=O)[C@H](CCC(=O)O)NC(=O)[C@@H]2CSSC[C@H](NC(=O)[C@@H](N)Cc3ccc(O)cc3)C(=O)N[C@@H](CCC(N)=O)C(=O)N[C@@H](CCCCN)C(=O)N[C@@H](Cc3c[nH]c4ccccc34)C(=O)N[C@@H](CCSC)C(=O)N[C@@H](Cc3c[nH]c4ccccc34)C(=O)N[C@@H]([C@@H](C)O)C(=O)N[C@H]3CSSC[C@H](NC(=O)[C@H](C(C)C)NC1=O)C(=O)N[C@@H](CCCNC(=N)N)C(=O)N[C@@H](CC(C)C)C(=O)N[C@@H](Cc1c[nH]c4ccccc14)C(=O)N[C@H](C(=O)N[C@@H](CCCCN)C(=O)N[C@@H](CCCCN)C(=O)N[C@@H](CCCCN)C(=O)N[C@@H](CC(C)C)C(=O)N[C@H](Cc1c[nH]c4ccccc14)C(=O)NC1CCCCC1)CSSC[C@H](NC(=O)[C@H](CCCCN)NC(=O)[C@H](CCCNC(=N)N)NC(=O)[C@H](CCC(=O)O)NC(=O)[C@H](CO)NC(=O)[C@H](CC(=O)O)NC3=O)C(=O)N2 [Protoxin II (D)-NHcyclohexyl] | 31 | – | – | – |
| CSCC[C@@H]1NC(=O)CNC(=O)[C@H](CCC(=O)O)NC(=O)[C@@H]2CSSC[C@H](NC(=O)[C@@H](N)Cc3ccc(O)cc3)C(=O)N[C@@H](CCC(N)=O)C(=O)N[C@@H](CCCCN)C(=O)N[C@@H](Cc3c[nH]c4ccccc34)C(=O)N[C@@H](CCSC)C(=O)N[C@@H](Cc3c[nH]c4ccccc34)C(=O)N[C@@H]([C@@H](C)O)C(=O)N[C@H]3CSSC[C@H](NC(=O)[C@H](C(C)C)NC1=O)C(=O)N[C@@H](CCCNC(=N)N)C(=O)N[C@@H](CC(C)C)C(=O)N[C@@H](Cc1c[nH]c4ccccc14)C(=O)N[C@H](C(=O)N[C@@H](CCCCN)C(=O)N[C@@H](CCCCN)C(=O)N[C@@H](CCCCN)C(=O)N[C@@H](CC(C)C)C(=O)N[C@@H](Cc1c[nH]c4ccccc14)C(=O)N[C@H](Cc1c[nH]c4ccccc14)C(=O)O)CSSC[C@H](NC(=O)[C@H](CCCCN)NC(=O)[C@H](CCCNC(=N)N)NC(=O)[C@H](CCC(=O)O)NC(=O)[C@H](CO)NC(=O)[C@H](CC(=O)O)NC3=O)C(=O)N2 [Protoxin II-D-Trp] | 16.5 | – | – | – |
| CNC(=O)[C@H](Cc1c[nH]c2ccccc12)NC(=O)[C@H](CC(C)C)NC(=O)[C@H](CCCCN)NC(=O)[C@H](CCCCN)NC(=O)[C@H](CCCCN)NC(=O)[C@@H]1CSSC[C@@H]2NC(=O)[C@H](CCCCN)NC(=O)[C@H](CCCNC(=N)N)NC(=O)[C@H](CCC(=O)O)NC(=O)[C@H](CO)NC(=O)[C@H](CC(=O)O)NC(=O)[C@@H]3CSSC[C@H](NC(=O)[C@H](C(C)C)NC(=O)[C@H](CCSC)NC(=O)CNC(=O)[C@H](CCC(=O)O)NC(=O)[C@H](CSSC[C@H](NC(=O)[C@@H](N)Cc4ccc(O)cc4)C(=O)N[C@@H](CCC(N)=O)C(=O)N[C@@H](CCCCN)C(=O)N[C@@H](Cc4c[nH]c5ccccc45)C(=O)N[C@@H](CCSC)C(=O)N[C@@H](Cc4c[nH]c5ccccc45)C(=O)N[C@@H]([C@@H](C)O)C(=O)N3)NC2=O)C(=O)N[C@@H](CCCNC(=N)N)C(=O)N[C@@H](CC(C)C)C(=O)N[C@@H](Cc2c[nH]c3ccccc23)C(=O)N1 [Protoxin II-NHMe] | 64.3 | – | – | – |
| CSCC[C@@H]1NC(=O)CNC(=O)[C@H](CCC(=O)O)NC(=O)[C@@H]2CSSC[C@H](NC(=O)[C@@H](N)Cc3ccc(O)cc3)C(=O)N[C@@H](CCC(N)=O)C(=O)N[C@@H](CCCCN)C(=O)N[C@@H](Cc3c[nH]c4ccccc34)C(=O)N[C@@H](CCSC)C(=O)N[C@@H](Cc3c[nH]c4ccccc34)C(=O)N[C@@H]([C@@H](C)O)C(=O)N[C@H]3CSSC[C@H](NC(=O)[C@H](C(C)C)NC1=O)C(=O)N[C@@H](CCCNC(=N)N)C(=O)N[C@@H](CC(C)C)C(=O)N[C@@H](Cc1c[nH]c4ccccc14)C(=O)N[C@H](C(=O)N[C@@H](CCCCN)C(=O)N[C@@H](CCCCN)C(=O)N[C@@H](CCCCN)C(=O)N[C@@H](CC(C)C)C(=O)N[C@@H](Cc1c[nH]c4ccccc14)C(=O)Nc1ccccc1)CSSC[C@H](NC(=O)[C@H](CCCCN)NC(=O)[C@H](CCCNC(=N)N)NC(=O)[C@H](CCC(=O)O)NC(=O)[C@H](CO)NC(=O)[C@H](CC(=O)O)NC3=O)C(=O)N2 [Protoxin II-NHanaline] | – | – | – | IC50 (Nav1.7 [1]): 5.1 nM |
| CSCC[C@@H]1NC(=O)CNC(=O)[C@H](CCC(=O)O)NC(=O)[C@@H]2CSSC[C@H](NC(=O)[C@@H](N)Cc3ccc(O)cc3)C(=O)N[C@@H](CCC(N)=O)C(=O)N[C@@H](CCCCN)C(=O)N[C@@H](Cc3c[nH]c4ccccc34)C(=O)N[C@@H](CCSC)C(=O)N[C@@H](Cc3c[nH]c4ccccc34)C(=O)N[C@@H]([C@@H](C)O)C(=O)N[C@H]3CSSC[C@H](NC(=O)[C@H](C(C)C)NC1=O)C(=O)N[C@@H](CCCNC(=N)N)C(=O)N[C@@H](CC(C)C)C(=O)N[C@@H](Cc1c[nH]c4ccccc14)C(=O)N[C@H](C(=O)N[C@@H](CCCCN)C(=O)N[C@@H](CCCCN)C(=O)N[C@@H](CCCCN)C(=O)N[C@@H](CC(C)C)C(=O)N[C@@H](Cc1c[nH]c4ccccc14)C(=O)NC1CCCCC1)CSSC[C@H](NC(=O)[C@H](CCCCN)NC(=O)[C@H](CCCNC(=N)N)NC(=O)[C@H](CCC(=O)O)NC(=O)[C@H](CO)NC(=O)[C@H](CC(=O)O)NC3=O)C(=O)N2 [Protoxin II-NHcyclohexyl] | 22 | – | – | – |
| COC(=O)[C@H](Cc1c[nH]c2ccccc12)NC(=O)[C@H](CC(C)C)NC(=O)[C@H](CCCCN)NC(=O)[C@H](CCCCN)NC(=O)[C@H](CCCCN)NC(=O)[C@@H]1CSSC[C@@H]2NC(=O)[C@H](CCCCN)NC(=O)[C@H](CCCNC(=N)N)NC(=O)[C@H](CCC(=O)O)NC(=O)[C@H](CO)NC(=O)[C@H](CC(=O)O)NC(=O)[C@@H]3CSSC[C@H](NC(=O)[C@H](C(C)C)NC(=O)[C@H](CCSC)NC(=O)CNC(=O)[C@H](CCC(=O)O)NC(=O)[C@H](CSSC[C@H](NC(=O)[C@@H](N)Cc4ccc(O)cc4)C(=O)N[C@@H](CCC(N)=O)C(=O)N[C@@H](CCCCN)C(=O)N[C@@H](Cc4c[nH]c5ccccc45)C(=O)N[C@@H](CCSC)C(=O)N[C@@H](Cc4c[nH]c5ccccc45)C(=O)N[C@@H]([C@@H](C)O)C(=O)N3)NC2=O)C(=O)N[C@@H](CCCNC(=N)N)C(=O)N[C@@H](CC(C)C)C(=O)N[C@@H](Cc2c[nH]c3ccccc23)C(=O)N1 [Protoxin II-OMe] | 8.4 | – | – | – |
| CSCC[C@@H]1NC(=O)CNC(=O)[C@H](CCC(=O)O)NC(=O)[C@@H]2CSSC[C@H](NC(=O)[C@@H](N)Cc3ccc(O)cc3)C(=O)N[C@@H](CCC(N)=O)C(=O)N[C@@H](CCCCN)C(=O)N[C@@H](Cc3c[nH]c4ccccc34)C(=O)N[C@@H](CCSC)C(=O)N[C@@H](Cc3c[nH]c4ccccc34)C(=O)N[C@@H]([C@@H](C)O)C(=O)N[C@H]3CSSC[C@H](NC(=O)[C@H](C(C)C)NC1=O)C(=O)N[C@@H](CCCNC(=N)N)C(=O)N[C@@H](CC(C)C)C(=O)N[C@@H](Cc1c[nH]c4ccccc14)C(=O)N[C@H](C(=O)N[C@@H](CCCCN)C(=O)N[C@@H](CCCCN)C(=O)N[C@@H](CCCCN)C(=O)N[C@@H](CC(C)C)C(=O)N[C@@H](Cc1c[nH]c4ccccc14)C(=O)O)CSSC[C@H](NC(=O)[C@H](CCCCN)NC(=O)[C@H](CCCNC(=N)N)NC(=O)[C@H](CCC(=O)O)NC(=O)[C@H](CO)NC(=O)[C@H](CC(=O)O)NC3=O)C(=O)N2 [Protoxin II] | – | – | – | IC50 (Nav1.2 [2]): 100 nM |
| NC1=N[C@H](O)[C@H]2[C@H]3O[C@]4(O)O[C@@H]([C@@H](O)[C@@]2(N1)[C@@H]4O)[C@]3(O)CO [TTX, tetrodotoxin] | – | – | – | IC50 (Nav1.3): 15 nM; IC50 (Nav1.6): 6 nM; IC50 (Nav1.8): 50000 nM; IC50 (Nav1.9): 1000 nM; IC50 (Nav1.1): 10 nM; IC50 (Nav1.2 [3]): 10 nM |
| YCQKWLWTCDSERKCCEDMVCRLWCKKRL [GsAF I] | – | 249 | 255 ± 43 | – |
| YCQKWMWTCDEERKCCEGLVCRLWCKKKIEEG [VsTx II] | – | 9260 | 42400 | – |
| YCQKWMWTCDEERKCCEGLVCRLWCKKKIEW [GsAF II] | – | 70 | 410 ± 20 | – |
| YCQKWMWTCDEERKCCEGLVCRLWCKRIINM [GsMTx II/PaTX II] | – | 260 | 2700 | – |
| YCQKWMWTCDSARKCCEGLVCRLWCKKII [PaTx I] | – | – | – | IC50 (Nav1.2 [5]): 5000 nM |
| YCQKWMWTCDSERKCCEGYVCELWCKYNL [JxTx XII] | – | – | – | IC50 (Nav1.2 [5]): 73900 nM |
| YCQKWMWTCDSKRACCEGLRCKLWCRKII [JzTx V] | – | – | 157 ± 20 | – |
| YCQKWMWTCDSKRKCCEDMVCQLWCKKRL [GrTx I] | – | 1010 | 2690 | – |
